The source of these data is patent publication US8101736B2, “Polynucleotides and polypeptide of human KV1.3, compositions comprising same and methods of using same” (GeneGrafts Ltd., priority 2005, dated 2012).

Where two headings read alike, the source gives them in different places.

Experiment [1] deals with NIH/3T3 fibroblasts cell line. The experiment is described as follows: Whole-cell patch clamp of transfected NIH/3T3 cells. To be noted: stably transfected NIH/3T3 cells; for inactivation character of potassium current: FIG. 7 and FIG. 8; for potassium current amplitude: whole-cell voltage clamp, room temperature. It counts as cell-based, Mouse. As to the method: Mouse fibroblasts cell line (NIH/3T3, ATCC ACCESSION NO. CRL-6361):
(§1) Voltage clamp assay was used to test the expression and function of the over-expressed channels.
Selection was done using Neomycin sulfate (G418) antibiotic (Gibco Catalog No. 11811-031) which was added to the growth medium ([…]). Clones were isolated using cloning ring and cultured into 24 well plate (corning Catalog No. 3524). For expansion, confluent wells were transferred to six well plates and then to 100 mm culture dish (Corning Catalog No. 430167DMEM-complete+G418 10% FCS was thereafter replaced every 72 to 96 hours.
Total cell protein was extracted from the various clones using 300 μl cold RIPA buffer (with supplements; RIPA lysis buffer, 1× Santa Cruz Biotechnology, Catalog No. 24948) and screened by western blot analysis with rabbit anti-Kv1.3 antibody (CHEMICON, Catalog No. AB5178). Colonies that tested western blot positive were then analyzed by voltage clamp.
(§2) Patch clamp recordings—Voltage-clamp recordings were performed using the whole-cell patch clamp technique. All measurements were done at room temperature. Patch pipettes (2-4 MΩ) were prepared from glass capillary tubes (Jencons Catalog No. 687-055) using a double-stage puller (Narishige pp-830). Currents were recorded with an Axon Instruments amplifier (Axopatch 200), digitized by DigiData 1322A digitizer (Axon instruments). Data was analyzed using pCLAMP software (version 8.0). Bath solution for the whole-cell recordings contained (in mM): 140 NaCl, 3 KCl, 2 CaCl2, 2 MgCl2, 10 Glucose and 10 HEPES (pH 7.4). Pipette solution for the whole-cell recordings (in mM): 140 KCl, 10 Na2 ATP, 1 CaCl2, 1 MgCl2, 10 EGTA and 5 HEPES (pH 7.4). Currents were elicited by 200 ms pulses from holding potential of −80 mV to −90 mv and then to 110 mV in increments of 20 mV.

A further experiment concerns Human dermal fibroblasts. The experiment is described as follows: Whole-cell patch clamp of transfected human dermal fibroblasts. It counts as cell-based. The conditions noted are these: for potassium current amplitude: 7-20 days after nucleoporation, 12 cells per construct; for character of potassium current: FIG. 9 and FIG. 10.
Excerpt: as §1
The protocol is using Collagenase type 1 (Worthington Biochemical Corp., Lakewood, N.J., cat. LS004196, lot.X4J7447) for extractions of cells from a tissue. Primary cultures were generated by seeding in flasks with growth Medium: DMEM+HEPES (ADCF) with phenol red (HyClone part no SH3A1534.01, Lot no ANM20173 custom made for biogenics, L.T.D). Medium was supplemented with 10% FBS defined (HyClone; Cat no: SH30072.03; Lot no: APD21173); ITS+1 liquid media supplement (sigma # I-2521); Gentamycin 50 μg ml (Beit ha'emek; cat no#03-035-1) and Amphotericin B 2.5 μg ml (Beit ha'emek; Catalog No. 03-029-1).
Five days prior to transfection, cells were seeded in 150 cm^2 flasks. Medium was changed every 3 days. Cells reached 90% confluence in the day of the transfection.
For expression of the wt and mutation constructs in human dermal fibroblasts, Amaxa Nucleofector (Amaxa biosystem) and Human Dermal Fibroblast (NHDF) Nucleofector kit (Catalog No. VPD-1001) were used. Nucleofection was done according to the protocol of the manufacturer. Cells from passage 1-5 were used. The expression was characterized using fluorescent microscopy and the patch clamp technique. Seven days after nucleofection patch clamp analysis were performed.
as §2
(Patch clamp records ionic current or voltage across a cell membrane.)

The conditions of experiment [2]: wild type, from Marom et al. 1995; cited from earlier work.
The nature of experiment [3]: Transition rate of the channel from open to inactivation. The conditions noted are these: H399W mutant.

Take “wild type Kv1.3: wild type human Kv1.3 voltage-gated potassium channel (SEQ ID NO: 4, GenBank AAC31761, KCNA3)”: in experiment [1], the “inactivation character of potassium current” value is reported as “slowly inactivated” and the potassium current amplitude is 200-1500 pA. In the experiment on Human dermal fibroblasts, the potassium current amplitude is 600-2500 pA and the “character of potassium current” value is recorded as “typical potassium”. For the same molecule, the “transition rate from open to inactivation” value in experiment [2] is 0.0074.

B1: H399W: human Kv1.3 channel mutated to express tryptophan at position 399 instead of histidine (SEQ ID NO: 2), expressed from pIRES2-EGFP (protein)
chain: MTVVPGDHLLEPEVADGGGAPPQGGCGGGGCDRYEPLPPSLPAAGEQDCCGERVVINISGLRFETQLKTLCQFPETLLGDPKRRMRYFDPLRNEYFFDRNRPSFDAILYYYQSGGRIRRPVNVPIDIFSEEIRFYQLGEEAMEKFREDEGFLREEERPLPRRDFQRQVWLLFEYPESSGPARGIAIVSVLVILISIVIFCLETLPEFRDEKDYPASTSQDSFEAAGNSTSGSRAGASSFSDPFFVVETLCIIWFSFELLVRFFACPSKATFSRNIMNLIDIVAIIPYFITLGTELAERQGNGQQAMSLAILRVIRLVRVFRIFKLSRHSKGLQILGQTLKASMRELGLLIFFLFIGVILFSSAVYFAEADDPTSGFSSIPDAFWWAVVTMTTVGNSYGDMWPVTIGGKIVGSLCAIAGVLTIALPVPVIVSNFNYFYHRETEGEEQSQYMHVGSCQHLSSSAEELRKARSNSTLSKSEYMVIEEGGMNHSAFPQTPFKTGNSTATCTTNN
modifications: A recombinant polypeptide having the H399W mutation
Turning to B1, in experiment [1], the “inactivation character of potassium current” value is recorded as “fast inactivated” and the potassium current amplitude was 150-1800 pA. In addition, in the experiment on Human dermal fibroblasts, the potassium current amplitude is listed as 400-1200 pA and the “character of potassium current” value is reported as “fast inactivated”. The “transition rate from open to inactivation” value in experiment [3] is 0.025.
